In patent EP1144369B1 (Wyeth Holdings Corporation, priority 1999, dated 2000):

Key:
MMP-1 = biological target: T1, MMP-1 (Homo sapiens, UniProt P03956); assay: MMP-1 inhibition (thiopeptide or fluorescent peptide substrate); type: biochemical; details: for IC50: plain number = IC50
T1 sequence (P03956 100-469): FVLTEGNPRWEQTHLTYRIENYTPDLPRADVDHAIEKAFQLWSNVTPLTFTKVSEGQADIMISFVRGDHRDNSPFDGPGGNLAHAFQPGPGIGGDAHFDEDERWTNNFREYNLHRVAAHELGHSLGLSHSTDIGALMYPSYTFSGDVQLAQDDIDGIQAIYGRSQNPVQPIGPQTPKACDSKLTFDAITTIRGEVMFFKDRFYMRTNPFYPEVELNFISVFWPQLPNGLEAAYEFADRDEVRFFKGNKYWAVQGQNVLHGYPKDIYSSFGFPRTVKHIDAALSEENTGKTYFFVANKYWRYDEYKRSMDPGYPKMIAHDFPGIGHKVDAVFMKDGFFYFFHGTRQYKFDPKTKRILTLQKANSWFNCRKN
Method: (§1) The enzyme activity is measured by the rate of the color increase. The thiopeptide substrate is made up fresh as a 20 mM stock in 100% DMSO and the DTNB is dissolved in 100% DMSO as a 100 mM stock and stored in the dark at room temperature. Both the substrate and DTNB are diluted together to 1 mM with substrate buffer (50 mM HEPES pH 7.5, 5 mM CaCl2) before use. The stock of enzyme is diluted with buffer (50 mM HEPES, pH 7.5, 5 mM CaCl2, 0.02% Brij) to the desired final concentration.
(§2) Alternatively, a fluorescent peptide substrate is used. In this test procedure, the peptide substrate contains a fluorescent group and a quenching group. Upon cleavage of the substrate by an MMP, the fluorescence that is generated is quantitated on the fluorescence plate reader. The assay is run in HCBC assay buffer (50mM HEPES, pH 7.0, 5 mM Ca^+2, 0.02% Brij, 0.5% Cysteine), with human recombinant MMP-1, MMP-9, or MMP-13. The substrate is dissolved in methanol and stored frozen in 1 mM aliquots. For the assay, substrate and enzymes are diluted in HCBC buffer to the desired concentrations. Compounds are added to the 96 well plate containing enzyme and the reaction is started by the addition of substrate.
(§3) For either the thiopeptide or fluorescent peptide test procedures, the slope of the line is calculated and represents the reaction rate. The linearity of the reaction rate is confirmed (r^2 >0.85). The mean (x±sem) of the control rate is calculated and compared for statistical significance (p<0.05) with drug-treated rates using Dunnett's multiple comparison test.

MMP-13 = MMP-13 (Homo sapiens, UniProt P45452); assay: MMP-13 inhibition (thiopeptide or fluorescent peptide substrate); type: biochemical
Method: as §1, §2, §3

THP-1 cells = assay: THP-1 soluble protein assay (LPS-stimulated human monocytic THP-1 cells); type: cell-based; details: LPS-stimulated THP-1 cells; for inhibition at 3 µM: Homo sapiens, read-out: % Inhib. @ 3µM THP
Description: Mitogenic stimulation of THP-1 cells cause differentiation into macrophage like cells with concomitant secretion of tumor necrosis factor (TNF-a) and TNF receptor (TNF-R p75/80 and TNF-R p55/60) and Interleukin-8 (IL-8), among other proteins. In addition, non-stimulated THP-1 cells shed both the p75/80 and the p55/60 receptors over time. The release of membrane bound TNF-α and possibly TNF-R p75/80 and TNF-R p55/60, but not IL-8, is mediated by an enzyme called TNF-a converting enzyme or TACE.
THP-1 cells (from ATCC) are a human monocytic cell line which were obtained from the peripheral blood of a person with acute monocytic leukemia. They can be grown in culture and differentiated into macrophage like cells by stimulation with mitogens.
Each vial of cells are cultured for about two weeks prior to being used for an assay and then are used for only 4 to 6 weeks to screen compounds.
Cell exposure to DMSO was limited to 0.1 % final concentration. […] Compounds can be evaluated for their effect on basal (non-stimulated) shedding of the receptors by replacing the LPS with […] of THP-1 media. Plates are placed into an incubator set at 5% CO2 and at 37°C. After 4 hours of incubation, […] of tissue culture supernatant (TCS) is removed for use in an TNF-a ELISA. Following 24 hours of incubation, […] of TCS is removed and used for analysis in TNF-R p75/80, TNF-R p55/60 and IL-8 ELISAs.
In addition, at the 24 hours timepoint, and the cells for each treatment group are collected by resuspension in 500 µl/well of THP-1 media and transferred into a FACS tube. […] The samples are run on a Becton Dickinson FaxCaliber FLOW cytometry machine and the amount of dye taken up by each cell is measured in the high red wavelength (FL3). Only cells with compromised membranes (dead or dying) can take up PI. The percent of live cells is calculated by the number of cells not stained with PI, divided by the total number of cells in the sample. The viability values calculated for the drug treated groups were compared to the viability value calculated for the vehicle treated mitogen stimulated group ("vehicle positive control") to determine the "percent change from control". This "percent change from control" value is an indicator of drug toxicity.
The quantity of soluble TNF-a, TNF-R p75/80 and TNF-R p55/60 and IL-8 in the TCS of the THP-1 cell cultures are obtained with commercially available ELISAs from R&D Systems, by extrapolation from a standard curve generated with kit standards. The number of cells that either take up or exclude PI are measured by the FLOW cytometry machine and visualized by histograms using commercially available Cytologic software for each treatment group including all controls.
Biological variability in the magnitude of the response of THP-1 cell cultures requires that experiments be compared on the basis of percent change from "vehicle positive control" for each drug concentration. Percent change in each soluble protein evaluated from the "vehicle positive control" was calculated for each compound concentration with the following formula: % Change =(pg/ml(compound) - pg/ml (veh pos control))/(pg/ml (veh pos control) - pg/ml(veh neg control))x 100 [formula]
For the soluble protein (TNF-a, p75/80, p55/60, IL-8) studies under stimulated conditions, the mean pg/ml of duplicate wells were determined and the results expressed as percent change from "vehicle positive control". For the soluble protein (p75/80 and p55/60 receptors) studies under non-stimulated conditions, the mean pg/ml of duplicate wells were determined and the results expressed as percent change from "vehicle positive control" utilizing the following formula: % Change =(pg/ml (compound neg control) - pg/ml (veh neg control)/(pg/ml (veh neg control))X 100 [formula]
IC50 values for each compound are calculated by non-linear regression analysis using customized software utilizing the JUMP statistical package.

MMP-9 = MMP-9 (Homo sapiens, UniProt P14780); assay: MMP-9 inhibition (thiopeptide or fluorescent peptide substrate); type: biochemical
Sequence of MMP-9 (P14780 94-707): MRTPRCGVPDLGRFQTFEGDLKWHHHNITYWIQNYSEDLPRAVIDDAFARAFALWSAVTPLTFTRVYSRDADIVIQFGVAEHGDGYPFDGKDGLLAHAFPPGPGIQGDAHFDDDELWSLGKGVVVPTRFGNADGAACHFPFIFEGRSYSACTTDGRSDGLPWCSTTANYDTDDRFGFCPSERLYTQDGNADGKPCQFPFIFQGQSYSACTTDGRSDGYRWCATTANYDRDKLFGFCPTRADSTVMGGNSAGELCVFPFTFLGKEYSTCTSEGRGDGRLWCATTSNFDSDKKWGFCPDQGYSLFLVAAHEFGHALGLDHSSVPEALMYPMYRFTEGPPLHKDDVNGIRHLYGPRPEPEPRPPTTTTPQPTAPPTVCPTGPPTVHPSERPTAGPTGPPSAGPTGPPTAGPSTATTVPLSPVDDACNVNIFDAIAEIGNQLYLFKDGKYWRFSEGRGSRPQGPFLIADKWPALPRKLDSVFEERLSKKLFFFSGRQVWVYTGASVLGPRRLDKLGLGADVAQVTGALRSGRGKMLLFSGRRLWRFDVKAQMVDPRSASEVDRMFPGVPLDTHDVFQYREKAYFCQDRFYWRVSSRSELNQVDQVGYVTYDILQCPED
Method: as §1, §2, §3

[1] = biological target: TNF-α converting enzyme (TACE) (Homo sapiens, UniProt P78536); assay: TACE inhibition (fluorescent peptidyl substrate); type: biochemical; details: read-out: IC50 (nM) or % Inhibition (µM) TACE
Sequence of TNF-α converting enzyme (TACE) (P78536 215-824, species assumed): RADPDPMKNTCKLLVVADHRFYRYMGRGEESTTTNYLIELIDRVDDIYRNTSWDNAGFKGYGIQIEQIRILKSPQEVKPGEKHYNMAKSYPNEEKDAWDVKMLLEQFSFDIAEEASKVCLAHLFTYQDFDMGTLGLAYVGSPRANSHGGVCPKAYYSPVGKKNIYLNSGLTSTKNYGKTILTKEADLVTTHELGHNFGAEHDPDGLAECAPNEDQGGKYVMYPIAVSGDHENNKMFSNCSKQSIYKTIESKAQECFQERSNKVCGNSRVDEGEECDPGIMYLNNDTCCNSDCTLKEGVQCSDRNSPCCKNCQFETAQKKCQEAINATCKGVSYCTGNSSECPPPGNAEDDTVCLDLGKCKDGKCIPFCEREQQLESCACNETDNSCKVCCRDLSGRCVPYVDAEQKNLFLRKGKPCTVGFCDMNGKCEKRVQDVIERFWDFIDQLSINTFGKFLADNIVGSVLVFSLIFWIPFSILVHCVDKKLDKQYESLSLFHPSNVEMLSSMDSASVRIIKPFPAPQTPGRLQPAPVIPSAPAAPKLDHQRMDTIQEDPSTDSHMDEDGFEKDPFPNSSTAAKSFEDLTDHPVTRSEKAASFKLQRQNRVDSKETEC
Method: Using 96-well black microtiter plates, each well receives a solution composed of 10 µL TACE (final concentration 1µg/mL), 70µL Tris buffer, pH 7.4 containing 10% glycerol (final concentration 10 mM), and 10 µL of test compound solution in DMSO (final concentration 1µM, DMSO concentration <1%) and incubated for 10 minutes at room temperature. The reaction is initiated by addition of a fluorescent peptidyl substrate (final concentration 100 µM) to each well and then shaking on a shaker for 5 sec.
The reaction is read (excitation 340 nm, emission 420 nm) for 10 min. and the increase in fluorescence over time is plotted as a linear line. The slope of the line is calculated and represents the reaction rate.
The linearity of the reaction rate is confirmed (r^2 >0.85). The mean (x±sem) of the control rate is calculated and compared for statistical significance (p<0.05) with drug-treated rates using Dunnett's multiple comparison test.

Compound	inhibition at 10 µM (MMP-1; read-out: IC50 (nM) or % Inhibition (µM) MMP-1)	IC50 (MMP-13)	inhibition at 3 µM (THP-1 cells)	IC50 (MMP-9)	IC50 (MMP-1)	IC50 [1]	% Inhib. @ 3µM THP (THP-1 cells)
CCCCC#CCOc1ccc(S(=O)(=O)N(C)c2c(C)cc(Br)cc2C(=O)NO)cc1 [Example 56, 5-Bromo-2-[(4-hept-2-ynyloxy-benzenesulfonyl)-methyl-amino]-N-hydroxy-3-methyl-benzamide]	53%	701 nM	16%	389 nM			
C#CC(C)Oc1ccc(S(=O)(=O)N(C)c2c(C)cc(Br)cc2C(=O)NO)cc1 (centres unmarked) [Example 79, 5-Bromo-N-hydroxy-3-methyl-2-{methyl-[4-(1-methyl-prop-2-ynyloxy)-benzenesulfonyl]-amino}-benzamide]		433 nM	9%	455 nM	1530 nM	122 nM	
COc1ccc(C#CCOc2ccc(S(=O)(=O)N(C)c3c(C)cc(Br)cc3C(=O)NO)cc2)cc1 [Example 62, 5-Bromo-N-hydroxy-2-({4-[3-(4-methoxy-phenyl)-prop-2-ynyloxy]-benzenesulfonyl}-methyl-amino)-3-methyl-benzamide]		588 nM	15%	901 nM	3600 nM	104 nM	
CC#CCOc1ccc(S(=O)(=O)N(Cc2ccccc2)c2c(C)cc(C)cc2C(=O)NO)cc1 [Example 64, 2-[Benzyl-(4-but-2-ynyloxy-benzenesulfonyl)-amino]-N-hydroxy-3,5-dimethyl-benzamide]		312 nM	48%	830 nM	1190 nM	105 nM	
Cc1cc(Br)cc(C(=O)NO)c1N(C)S(=O)(=O)c1ccc(OCC#CCN2CCCC2)cc1 [Example 65, 5-Bromo-N-hydroxy-3-methyl-2-{methyl-[4-(4-pyrrolidin-1-yl-but-2-ynyloxy)-benzenesulfonyl]-amino}-benzamide]		537 nM	12%	602 nM	3350 nM	148 nM	
Cc1cc(Br)cc(C(=O)NO)c1N(C)S(=O)(=O)c1ccc(OCC#Cc2cccc(O)c2)cc1 [Example 84, 5-Bromo-N-hydroxy-2-({4-[3-(3-hydroxy-phenyl)-prop-2-ynyloxy]-benzenesulfonyl}-methyl-amino)-3-methyl-benzamide]		189 nM	0%	694 nM	113 nM	34 nM	
CCC#CCOc1ccc(S(=O)(=O)N(C)c2c(C)cc(Br)cc2C(=O)NO)cc1 [Example 55, 5-Bromo-N-hydroxy-3-methyl-2-[methyl-(4-pent-2-ynyloxy-benzenesulfonyl)-amino]-benzamide]		289 nM	48%	800 nM	1230 nM	12 nM	
5-Bromo-2-[(4-butoxy-benzenesulfonyl)-methyl-amino]-N-hydroxy-3-methyl-benzamide [Example 39]		68 nM		21 nM	2490 nM	67 nM	0%
COCC#CCOc1ccc(S(=O)(=O)N(C)c2c(C)cc(Br)cc2C(=O)NO)cc1 [Example 58, 5-Bromo-N-hydroxy-2-{[4-(4-methoxy-but-2-ynyloxy)-benzenesulfonyl]-methyl-amino}-3-methyl-benzamide]		233 nM	46%	387 nM	7800 nM	11 nM	
Cc1cc(Br)cc(C(=O)NO)c1N(C)S(=O)(=O)c1ccc(OCC#Cc2ccccc2)cc1 [Example 59, 5-Bromo-N-hydroxy-3-methyl-2-{methyl-[4-(3-phenyl-prop-2-ynyloxy)-benzenesulfonyl]-amino}-benzamide]		321 nM	20%	857 nM		66 nM	
CC#CCOc1ccc(S(=O)(=O)N(C)c2c(C)cc(Br)cc2C(=O)NO)cc1 [Example 54, 5-Bromo-2-[(4-But-2-ynyloxy-benzenesulfonyl)-methyl-amino]-N-hydroxy-3-methyl-benzamide]		154 nM	84%	304 nM	1620 nM		
COc1ccc(S(=O)(=O)N(C)c2c(C)cc(Br)cc2C(=O)NO)cc1 [Example 36, 5-Bromo-N-hydroxy-2-[(4-methoxy-benzenesulfonyl)-methyl-amino]-3-methyl-benzamide]		21 nM	14%	11 nM			
Cc1cc(Br)cc(C(=O)NO)c1N(C)S(=O)(=O)c1ccc(OCC#CCO)cc1 [Example 70, 5-Bromo-N-hydroxy-2-{[4-(4-hydroxy-but-2-ynyloxy)-benzenesulfonyl]-methyl-amino}-3-methyl-benzamide]		83 nM	88%	477 nM	3200 nM		
